Measurements taken from US11149062B2, “HDAC inhibitors and methods of treatment using the same” (UWM Research Foundation, Inc., priority 2015, dated 2021).

Tests used:
Recombinant human HDAC1 = target: T1, Recombinant human HDAC1 (Homo sapiens, UniProt Q13547); assay: HDAC-Glo I/II assay, HDAC1; type: biochemical; conditions: for IC50: Class I HDAC, compounds reduced by TCEP prior to assay, read-out: IC50 of HDAC1; for Class I selectivity Ratio HDAC 1/HDAC8: ratio of IC50 values
T1 construct: purchased BPS Bioscience Inc
Method: (§1) The purified compounds of all fragments and natural product derivatives were evaluated for inhibitory effects on three different classes of HDAC proteins (class I, IIa, and IIb). […] All activity was determined by using a fluorescence-based in vitro assay. Class I HDAC proteins that were evaluated were HDAC1, HDAC2, HDAC3, HDAC8, HDAC4, and HDAC6. Class IIa HDAC protein were HDAC4 and the Class IIb HDAC protein were HDAC6.
(§2) HDAC-Glo™ I/II Assay and Screening System (Promega) was used to determine the HDAC inhibitory activity. Recombinant human HDAC1, HDAC2, HDAC3, HDAC4, HDAC6 and HDAC8 were purchased from BPS Bioscience Inc. The inhibitory activities of the test compounds against recombinant HDAC were performed according to reagent suppliers' protocols.
(§3) All test compounds were firstly dissolved in DMSO to make 10 mM stock solution. A certain amount of stock solution was diluted to 1 mM by DMSO and then reduced by tris(2-carboxyethyl)phosphine hydrochloride (TCEP) in a molar ration of 1:1.5 for 20 min at ambient temperature prior to being assayed. After reduction, a series of fivefold dilutions of each reduced compound were prepared with HDAC-Glo buffer and 25 μL of each dilution was added into a well on a 96-well plate. HDAC enzymes were diluted to the desired concentrations with HDAC-Glo buffer and 25 μL of each diluted enzyme was dispensed into a well to mix with 25 μL of testing compound at room temperature for 30-60 seconds. After the reaction mixture had been incubated at room temperature for 1 hour, 50 μL of HDAC-Glo reagent was added to each reaction well and mixed up for 30-60 seconds. Finally, the plate was incubated at room temperature for an additional 30 minutes before the luminescence was measured on a Synergy HT plate reader (Bio-Tek). The luminescence intensity data were analyzed using GraphPad Prism 5 (GraphPad Software). In the absence of any test compound, the luminescence intensity (I100) in each data set was defined as 100% activity. In the absence of both of HDAC enzymes and test compound, the luminescence intensity (I0) in each data set was defined as 0% activity. The relative activity (%) in the presence of each compound was calculated according to the following equation: % activity=(I−I0)/(I100−I0), where I=the luminescence intensity if a compound is present in the reaction. Experiments were performed in triplicate and the calculated mean values were used for plotting.

Recombinant human HDAC2 = target: T2, Recombinant human HDAC2 (Homo sapiens, UniProt Q92769); assay: HDAC-Glo I/II assay, HDAC2; type: biochemical; conditions: Class I HDAC; compounds reduced by TCEP prior to assay
T2 construct: purchased BPS Bioscience Inc
Method: as §1, §2, §3

Recombinant human HDAC3 = target: T3, Recombinant human HDAC3 (Homo sapiens, UniProt O15379); assay: HDAC-Glo I/II assay, HDAC3; type: biochemical; conditions: Class I HDAC; compounds reduced by TCEP prior to assay
T3 construct: purchased BPS Bioscience Inc
Method: as §1, §2, §3

Recombinant human HDAC8 = target: T4, Recombinant human HDAC8 (Homo sapiens, UniProt Q9BY41); assay: HDAC-Glo I/II assay, HDAC8; type: biochemical; conditions: Class I HDAC; compounds reduced by TCEP prior to assay
T4 construct: purchased BPS Bioscience Inc
T4 sequence (Q9BY41 1-377): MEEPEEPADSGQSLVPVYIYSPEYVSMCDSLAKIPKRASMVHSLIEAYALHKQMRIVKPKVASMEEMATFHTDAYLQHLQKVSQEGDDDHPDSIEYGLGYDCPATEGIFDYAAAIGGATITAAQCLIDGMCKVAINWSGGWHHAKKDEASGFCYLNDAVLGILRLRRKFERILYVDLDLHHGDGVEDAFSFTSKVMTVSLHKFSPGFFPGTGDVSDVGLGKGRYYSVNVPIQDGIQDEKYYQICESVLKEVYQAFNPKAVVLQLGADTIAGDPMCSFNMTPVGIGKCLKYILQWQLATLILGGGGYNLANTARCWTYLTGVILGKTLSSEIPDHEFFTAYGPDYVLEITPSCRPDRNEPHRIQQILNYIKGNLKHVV
Method: as §1, §2, §3

HCT-116 (colon cancer) = assay: MTT antiproliferative assay, HCT-116; type: cell-based; conditions: Homo sapiens, HCT-116; MTT, 48 h; read-out: Antiproliferative Activity GI50, Colon HCT-116
Method: (§4) Briefly, the tumor cells (1×10^4 cells/well) were seeded in 96-well microtiter plates and incubated for 24 h at 37° C. Following incubation, the media was replaced with fresh media containing the above compounds at concentrations ranging from 1 μM to 1 pM diluted in DMSO and incubated for an additional 48 h. Drugs were run in duplicate or triplicate and control cells received fresh media with DMSO concentration equivalent to the treatment groups. […] After aspirating the culture medium, 200 μL of DMSO was added to dissolve the precipitate and the resulting solution was measured for absorbance at 570 nm with a reference wavelength of 690 nm using a microplate reader (Infinite M200 Pro TECAN).

HeLa (cervical cancer) = assay: MTT antiproliferative assay, HeLa; type: cell-based; conditions: Homo sapiens, MTT, 48 h, read-out: Antiproliferative Activity GI50, Cervical HeLa
Method: as §4

RFX393 (renal) = assay: MTT antiproliferative assay, RFX393; type: cell-based; conditions: MTT, 48 h; read-out: Antiproliferative Activity GI50, Renal RFX393
Method: as §4

in vivo = conditions: BALB/c, mouse, in vivo, ip
Description: BALB/c mice were purchased from The Jackson Laboratory (Bar Harbor, Me.) and used between 7 and 10 weeks of age. Mice were housed in a conventional animal vivarium and were given free access to food and water. All studies and procedures were approved by the Animal Care and Use Committee of the University of Wisconsin, Milwaukee.
Each animal was initially weighed using a digital scale and then intraperitoneally (IP) injected with the compounds (listed in Table 2). A single mouse was given a single IP dose of 200 mg/kg, body weight, a second mouse received a dose of 100 mg/kg and a third mouse received a single dose of 50 mg/kg. The mice were observed and weighed every other day for a period of 2 weeks. They were euthanized if they lost more than 20% of their body weight or if there were other signs of significant toxicity. […] This process was repeated until a tolerated dose was found, and the MTD value was determined.
To determine the MTD in vivo, the compounds listed above were injected intraperitoneally into BALB/c mice and morbidity and mortality were monitored over two weeks.

[1] = test system: colon (HCT-116), cervical (HeLa), and renal (RFX393) tumor cell lines; assay: MTT antiproliferative assay, all three tumor cell lines; type: cell-based; conditions: HCT-116, HeLa, RFX393; summary of Table 3; read-out: GI50 values against all three tumor cell lines
Method: as §4

[2] = 10 mg/mL cpd in 20% DMSO/saline

T1 sequence (Q13547 whole entry): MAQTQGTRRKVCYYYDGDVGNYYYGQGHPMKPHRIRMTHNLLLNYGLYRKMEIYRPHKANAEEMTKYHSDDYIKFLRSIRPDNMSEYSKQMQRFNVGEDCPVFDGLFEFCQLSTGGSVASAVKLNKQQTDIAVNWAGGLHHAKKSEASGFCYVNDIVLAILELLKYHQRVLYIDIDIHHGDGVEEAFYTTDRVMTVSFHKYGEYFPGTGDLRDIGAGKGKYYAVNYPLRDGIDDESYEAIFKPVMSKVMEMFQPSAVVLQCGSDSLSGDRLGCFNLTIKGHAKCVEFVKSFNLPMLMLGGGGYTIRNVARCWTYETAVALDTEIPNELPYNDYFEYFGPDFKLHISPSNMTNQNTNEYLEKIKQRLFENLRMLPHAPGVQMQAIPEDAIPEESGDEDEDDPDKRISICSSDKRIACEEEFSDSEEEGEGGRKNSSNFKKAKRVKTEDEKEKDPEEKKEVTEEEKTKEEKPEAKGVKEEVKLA
T3 sequence (O15379 whole entry): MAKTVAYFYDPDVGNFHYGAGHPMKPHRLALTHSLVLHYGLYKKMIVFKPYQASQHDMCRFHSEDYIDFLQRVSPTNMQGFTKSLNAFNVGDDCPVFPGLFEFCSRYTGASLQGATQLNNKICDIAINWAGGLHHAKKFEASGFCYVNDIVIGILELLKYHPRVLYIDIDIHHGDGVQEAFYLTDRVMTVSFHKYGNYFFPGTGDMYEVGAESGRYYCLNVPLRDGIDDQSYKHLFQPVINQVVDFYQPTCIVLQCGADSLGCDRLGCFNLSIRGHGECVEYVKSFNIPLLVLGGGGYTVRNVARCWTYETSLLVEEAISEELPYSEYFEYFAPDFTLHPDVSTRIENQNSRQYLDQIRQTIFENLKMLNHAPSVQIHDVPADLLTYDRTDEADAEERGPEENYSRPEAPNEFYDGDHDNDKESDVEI
T3 sequence (Q9Y618 395-489 partner limits assumed): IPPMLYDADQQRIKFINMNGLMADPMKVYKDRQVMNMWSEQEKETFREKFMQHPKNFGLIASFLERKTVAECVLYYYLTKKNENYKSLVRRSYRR
T2 sequence (Q92769 whole entry): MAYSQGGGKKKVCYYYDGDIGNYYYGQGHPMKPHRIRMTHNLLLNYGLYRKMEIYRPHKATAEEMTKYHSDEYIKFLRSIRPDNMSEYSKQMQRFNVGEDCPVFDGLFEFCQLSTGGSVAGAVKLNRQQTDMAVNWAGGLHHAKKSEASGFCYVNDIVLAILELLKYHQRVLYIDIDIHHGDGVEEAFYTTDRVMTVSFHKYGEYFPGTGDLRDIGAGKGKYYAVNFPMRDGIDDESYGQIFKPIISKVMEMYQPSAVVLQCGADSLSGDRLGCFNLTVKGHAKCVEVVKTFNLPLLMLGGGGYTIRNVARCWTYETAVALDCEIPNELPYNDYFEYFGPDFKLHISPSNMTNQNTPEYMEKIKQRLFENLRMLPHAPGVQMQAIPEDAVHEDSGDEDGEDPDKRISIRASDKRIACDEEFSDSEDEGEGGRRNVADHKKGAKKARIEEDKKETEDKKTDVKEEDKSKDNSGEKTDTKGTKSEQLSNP

SMILES	IC50 (Recombinant human HDAC1)	Class I selectivity Ratio HDAC 1/HDAC8 (Recombinant human HDAC1)	IC50 (Recombinant human HDAC2)	IC50 (Recombinant human HDAC3)	IC50 (Recombinant human HDAC8)	GI50 (HCT-116 (colon cancer))	GI50 (HeLa (cervical cancer))	GI50 (RFX393 (renal))	MTD at 2 weeks (in vivo)	GI50 [1]	Solubility [2]
COC(=O)[C@H]1CSSCC/C=C/C(O)CC(=O)N[C@H](CCSC)C(=O)N1 (stereo partly drawn) [TDF3m, Methyl (4S,7R,12E)-11-hydroxy-7-[2-(methylsulfanyl)ethyl]-6,9-dioxo-1,2-dithia-5,8-diazacyclopentadec-12-ene-4-carboxylate]	12.5 nM	0.00028	94.2 nM	623 nM	63000 nM	200 nM	400 nM	300 nM	> 200 mg/kg	400 nM	Partially soluble
CSCC[C@H]1NC(=O)CC(O)/C=C/CCSSC[C@H](C(=O)O)NC1=O (stereo partly drawn) [TDF3, (4S,7R,12E)-11-hydroxy-7-[2-(methylsulfanyl)ethyl]-6,9-dioxo-1,2-dithia-5,8-diazacyclopentadec-12-ene-4-carboxylic acid]	22.9 nM	0.00036	87.5 nM	819 nM	62800 nM	300 nM	600 nM	200 nM	> 200 mg/kg	600 nM	Soluble
